# In US6476077B1, “N-(2-phenyl-4-amino-butyl)-1-naphthamides as neurokinin-1 receptor antagonists” (Astrazeneca AB, priority 1999, dated 2002):
# Molecular target: T1, NK1 receptor (Oryctolagus cuniculus, UniProt G1SEI7)
# T1 construct: The pulmonary arteries are isolated from the rest of the tissues and cut in half to serve as pairs; from tissue; host or cells: rabbit pulmonary artery rings (male New Zealand white rabbit)
# Assay: Rabbit Pulmonary Artery: NK1 in vitro functional assay (Test C)
# Assay type: biochemical
# Conditions: rabbit pulmonary artery rings; antagonism of relaxation by agonist ASMSP; -log molar KB; read-out: NK1 pKb (Test C) (converted)
# Procedure: Rabbit Pulmonary Artery: NK1 in vitro functional assay (Test C)
# The ability of a Compound of the invention to antagonize the action of the agonist Ac-[Arg^6, Sar^9, Met(O2)^11]
# Male New Zealand white rabbits are euthanized via i.v. injection into an ear vein with 60 mg/kg Nembutal (50 mg/ml). Preceding the Nembutal into the vein is Heparin (1000 units/ml) at 0.0025 ml/kg for anticoagulant purposes. The chest cavity is opened from the top of the rib cage to the sternum and the heart, lungs and part of the trachea are removed. The pulmonary arteries are isolated from the rest of the tissues and cut in half to serve as pairs.
# The segments are suspended between stainless steel stirrups, so as not to remove any of the endothelium, and placed in water-jacketed (37.0° C.) tissue baths containing physiological salt solution of the following composition (mM): NaCl, 118.0; KCl, 4.7; CaCl2, 1.8; MgCl2, 0.54; NaH2PO4, 1.0; NaHCO3, 25.0; glucose, 11.0; indomethacin, 0.005(to inhibit cyclooxygenase); and dl-Propranolol, 0.001(to block β receptors); gassed continuously with 95% O2-5% CO2. Responses are measured on a Grass polygraph via Grass FT-03 transducers and the electrical signals (data) acquired using a Mi^2 software/hardware system for subsequent conversion to measures of relaxation. […]
# T1 sequence (G1SEI7 1-407): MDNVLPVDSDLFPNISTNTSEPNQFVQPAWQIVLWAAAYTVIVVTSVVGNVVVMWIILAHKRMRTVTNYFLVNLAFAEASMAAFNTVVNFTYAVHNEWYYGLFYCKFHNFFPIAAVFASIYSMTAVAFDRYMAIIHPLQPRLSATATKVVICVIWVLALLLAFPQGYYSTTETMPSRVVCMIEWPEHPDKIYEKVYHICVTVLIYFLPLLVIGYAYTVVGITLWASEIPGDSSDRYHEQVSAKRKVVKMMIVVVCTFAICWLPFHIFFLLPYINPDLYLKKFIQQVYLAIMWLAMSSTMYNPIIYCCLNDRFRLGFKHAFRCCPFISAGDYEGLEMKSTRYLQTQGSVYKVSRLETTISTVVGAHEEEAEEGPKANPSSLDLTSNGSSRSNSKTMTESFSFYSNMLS
row,Kb,SMILES
1,5.01 nM,COc1c(C#N)cc2ccccc2c1C(=O)N(C)CC(CCN1CCOCC1)c1ccc(Cl)c(Cl)c1 (centres unmarked) [Example 4]
2,2 nM,COc1c(C#N)cc2ccccc2c1C(=O)N(C)CC(CCN(C)C)c1ccc(Cl)c(Cl)c1 (centres unmarked) [Example 6]
